# Test results taken from the supplement of paper PMC9663587.
# How the values were obtained:
# YKL-5-124 = compound: C=CC(=O)Nc1ccc(C(=O)Nc2[nH]nc3c2CN(C(=O)N[C@H](CN(C)C)c2ccccc2)C3(C)C)cc1 [YKL-5-124]; experiment: increase in dead-cell fraction, 72 h; higher = more death;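 further: breast cancer cell lines in 384-well plates, stained with Hoechst plus LIVE/DEAD far red dye and imaged, cells above an LDR intensity threshold counted dead, Hoechst-negative corpses included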
# BSJ-03-123 = compound: CC(=O)c1c(C)c2cnc(Nc3ccc(N4CCN(CCOCCOCCOCCNC(=O)COc5cccc6c5C(=O)N(C5CCC(=O)NC5=O)C6=O)CC4)cn3)nc2n(C2CCCC2)c1=O [BSJ-03-123]; experiment: as above
# [1] = compound: CC(=O)c1c(C)c2cnc(Nc3ccc(N4CCNCC4)cn3)nc2n(C2CCCC2)c1=O; experiment: as above
# [2] = compound: CCN1CCN(Cc2ccc(Nc3ncc(F)c(-c4cc(F)c5nc(C)n(C(C)C)c5c4)n3)nc2)CC1; experiment: as above
# Neratinib/HKI272 [3] = compound: T1, CCOc1cc2ncc(C#N)c(Nc3ccc(OCc4ccccn4)c(Cl)c3)c2cc1NC(=O)/C=C/CN(C)C [Neratinib/HKI272]; experiment: as above
# [4] = compound: CCc1cnn2c(NCc3ccc[n+]([O-])c3)cc(N3CCCC[C@H]3CCO)nc12; experiment: as above
# LEE011/Ribociclib = compound: CN(C)C(=O)c1cc2cnc(Nc3ccc(N4CCNCC4)cn3)nc2n1C1CCCC1 [LEE011/Ribociclib]; experiment: as above
# THZ531 = compound: CN(C)C/C=C/C(=O)Nc1ccc(C(=O)N2CCC[C@@H](Nc3ncc(Cl)c(-c4c[nH]c5ccccc45)n3)C2)cc1 [THZ531]; experiment: as above
# THZ1 [5] = compound: T2, CN(C)C/C=C/C(=O)Nc1ccc(C(=O)Nc2cccc(Nc3ncc(Cl)c(-c4c[nH]c5ccccc45)n3)c2)cc1 [THZ1]; experiment: as above
# Flavopiridol = compound: CN1CC[C@H](c2c(O)cc(O)c3c(=O)cc(-c4ccccc4Cl)oc23)[C@H](O)C1 [Flavopiridol]; experiment: as above
# Neratinib/HKI272 [6] = compound: T1, Neratinib/HKI272; experiment: GR value, 72 h; higher = faster growth (1 = untreated, <0 = killing);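 further: breast cancer and non-malignant breast epithelial lines, nine half-log doses, viable cells counted by Hoechst and LIVE/DEAD dye imaging versus time-zero plates and DMSO controls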
# THZ1 [7] = compound: T2, THZ1; experiment: as above
cell line,measurement,setting,value
HCC1419,increase in dead-cell fraction,YKL-5-124; 0.001 µM,0.0323
same,increase in dead-cell fraction,YKL-5-124; 0.003162 µM,0.0181
same,increase in dead-cell fraction,YKL-5-124; 0.01 µM,0.0297
same,increase in dead-cell fraction,YKL-5-124; 0.03162 µM,0.0399
same,increase in dead-cell fraction,YKL-5-124; 0.1 µM,0.0564
same,increase in dead-cell fraction,YKL-5-124; 0.3162 µM,0.0505
same,increase in dead-cell fraction,YKL-5-124; 1 µM,0.0568
same,increase in dead-cell fraction,YKL-5-124; 3.162 µM,0.0662
same,increase in dead-cell fraction,YKL-5-124; 10 µM,0.187
same,increase in dead-cell fraction,BSJ-03-123; 0.001 µM,0.0036
same,increase in dead-cell fraction,BSJ-03-123; 0.003162 µM,0.0018
same,increase in dead-cell fraction,BSJ-03-123; 0.01 µM,0.0094
same,increase in dead-cell fraction,BSJ-03-123; 0.03162 µM,0.0064
same,increase in dead-cell fraction,BSJ-03-123; 0.1 µM,0.0141
same,increase in dead-cell fraction,BSJ-03-123; 0.3162 µM,0.0138
same,increase in dead-cell fraction,BSJ-03-123; 1 µM,0.0115
same,increase in dead-cell fraction,BSJ-03-123; 3.162 µM,0.0247
same,increase in dead-cell fraction,BSJ-03-123; 10 µM,0.031
same,increase in dead-cell fraction,[1]; 0.0003162 µM,0.0008
same,increase in dead-cell fraction,[1]; 0.001 µM,-0.0028
same,increase in dead-cell fraction,[1]; 0.003162 µM,-0.0032
same,increase in dead-cell fraction,[1]; 0.01 µM,-0.0075
same,increase in dead-cell fraction,[1]; 0.03162 µM,-0.0019
same,increase in dead-cell fraction,[1]; 0.1 µM,-0.0096
same,increase in dead-cell fraction,[1]; 0.3162 µM,-0.0094
same,increase in dead-cell fraction,[1]; 1 µM,-0.0106
same,increase in dead-cell fraction,[1]; 3.162 µM,-0.0074
same,increase in dead-cell fraction,[2]; 0.001 µM,-0.0053
same,increase in dead-cell fraction,[2]; 0.003162 µM,-0.0087
same,increase in dead-cell fraction,[2]; 0.01 µM,-0.0058
same,increase in dead-cell fraction,[2]; 0.03162 µM,-0.0119
same,increase in dead-cell fraction,[2]; 0.1 µM,-0.0149
same,increase in dead-cell fraction,[2]; 0.3162 µM,-0.0181
same,increase in dead-cell fraction,[2]; 1 µM,-0.006
same,increase in dead-cell fraction,[2]; 3.162 µM,-0.0031
same,increase in dead-cell fraction,[2]; 10 µM,0.0471
same,increase in dead-cell fraction,Neratinib/HKI272 [3]; 0.0003162 µM,-0.0014
same,increase in dead-cell fraction,Neratinib/HKI272 [3]; 0.001 µM,0.0002
same,increase in dead-cell fraction,Neratinib/HKI272 [3]; 0.003162 µM,0.0137
same,increase in dead-cell fraction,Neratinib/HKI272 [3]; 0.01 µM,0.0803
same,increase in dead-cell fraction,Neratinib/HKI272 [3]; 0.03162 µM,0.168
same,increase in dead-cell fraction,Neratinib/HKI272 [3]; 0.1 µM,0.238
same,increase in dead-cell fraction,Neratinib/HKI272 [3]; 0.3162 µM,0.274
same,increase in dead-cell fraction,Neratinib/HKI272 [3]; 1 µM,0.366
same,increase in dead-cell fraction,Neratinib/HKI272 [3]; 3.162 µM,0.493
same,increase in dead-cell fraction,[4]; 0.0001 µM,-0.001
same,increase in dead-cell fraction,[4]; 0.0003162 µM,-0.0047
same,increase in dead-cell fraction,[4]; 0.001 µM,-0.0035
same,increase in dead-cell fraction,[4]; 0.003162 µM,-0.0074
same,increase in dead-cell fraction,[4]; 0.01 µM,-0.001
same,increase in dead-cell fraction,[4]; 0.03162 µM,0.0673
same,increase in dead-cell fraction,[4]; 0.1 µM,0.324
same,increase in dead-cell fraction,[4]; 0.3162 µM,0.371
same,increase in dead-cell fraction,[4]; 1 µM,0.369
same,increase in dead-cell fraction,LEE011/Ribociclib; 0.001 µM,-0.0016
same,increase in dead-cell fraction,LEE011/Ribociclib; 0.003162 µM,0.0044
same,increase in dead-cell fraction,LEE011/Ribociclib; 0.01 µM,0.0015
same,increase in dead-cell fraction,LEE011/Ribociclib; 0.03162 µM,-0.0001
same,increase in dead-cell fraction,LEE011/Ribociclib; 0.1 µM,0.0168
same,increase in dead-cell fraction,LEE011/Ribociclib; 0.3162 µM,0.0148
same,increase in dead-cell fraction,LEE011/Ribociclib; 1 µM,0.0084
same,increase in dead-cell fraction,LEE011/Ribociclib; 3.162 µM,0.0128
same,increase in dead-cell fraction,LEE011/Ribociclib; 10 µM,0.0195
same,increase in dead-cell fraction,THZ531; 0.0001 µM,-0.0026
same,increase in dead-cell fraction,THZ531; 0.0003162 µM,-0.0053
same,increase in dead-cell fraction,THZ531; 0.001 µM,0.0001
same,increase in dead-cell fraction,THZ531; 0.003162 µM,-0.0057
same,increase in dead-cell fraction,THZ531; 0.01 µM,-0.0018
same,increase in dead-cell fraction,THZ531; 0.03162 µM,-0.001
same,increase in dead-cell fraction,THZ531; 0.1 µM,0.0145
same,increase in dead-cell fraction,THZ531; 0.3162 µM,0.0751
same,increase in dead-cell fraction,THZ531; 1 µM,0.14
same,increase in dead-cell fraction,THZ1 [5]; 0.0001 µM,-0.0023
same,increase in dead-cell fraction,THZ1 [5]; 0.0003162 µM,0.0069
same,increase in dead-cell fraction,THZ1 [5]; 0.001 µM,0.0008
same,increase in dead-cell fraction,THZ1 [5]; 0.003162 µM,0.001
same,increase in dead-cell fraction,THZ1 [5]; 0.01 µM,-0.0006
same,increase in dead-cell fraction,THZ1 [5]; 0.03162 µM,-0.0062
same,increase in dead-cell fraction,THZ1 [5]; 0.1 µM,0.0395
same,increase in dead-cell fraction,THZ1 [5]; 0.3162 µM,0.147
same,increase in dead-cell fraction,THZ1 [5]; 1 µM,0.138
same,increase in dead-cell fraction,Flavopiridol; 0.0001 µM,-0.0053
same,increase in dead-cell fraction,Flavopiridol; 0.0003162 µM,-0.0069
same,increase in dead-cell fraction,Flavopiridol; 0.001 µM,-0.006
same,increase in dead-cell fraction,Flavopiridol; 0.003162 µM,-0.0084
same,increase in dead-cell fraction,Flavopiridol; 0.01 µM,-0.0002
same,increase in dead-cell fraction,Flavopiridol; 0.03162 µM,0.0077
same,increase in dead-cell fraction,Flavopiridol; 0.1 µM,0.0061
same,increase in dead-cell fraction,Flavopiridol; 0.3162 µM,0.0159
same,increase in dead-cell fraction,Flavopiridol; 1 µM,0.162
same,GR value,Neratinib/HKI272 [6]; 0.0003162 µM,0.769 GR
same,GR value,Neratinib/HKI272 [6]; 0.001 µM,0.611 GR
same,GR value,Neratinib/HKI272 [6]; 0.003162 µM,0.148 GR
same,GR value,Neratinib/HKI272 [6]; 0.01 µM,0.0675 GR
same,GR value,Neratinib/HKI272 [6]; 0.03162 µM,-0.097 GR
same,GR value,Neratinib/HKI272 [6]; 0.1 µM,-0.159 GR
same,GR value,Neratinib/HKI272 [6]; 0.3162 µM,-0.26 GR
same,GR value,Neratinib/HKI272 [6]; 1 µM,-0.404 GR
same,GR value,Neratinib/HKI272 [6]; 3.162 µM,-0.494 GR
same,GR value,THZ1 [7]; 0.0001 µM,0.981 GR
same,GR value,THZ1 [7]; 0.0003162 µM,0.953 GR
same,GR value,THZ1 [7]; 0.001 µM,1.04 GR
same,GR value,THZ1 [7]; 0.003162 µM,1.03 GR
same,GR value,THZ1 [7]; 0.01 µM,1.01 GR
same,GR value,THZ1 [7]; 0.03162 µM,0.765 GR
same,GR value,THZ1 [7]; 0.1 µM,0.228 GR
same,GR value,THZ1 [7]; 0.3162 µM,-0.215 GR
same,GR value,THZ1 [7]; 1 µM,-0.386 GR
